From patent publication US11691972B2, “Compounds for targeted degradation of BRD9” (C4 Therapeutics, Inc., priority 2020, dated 2023)

Target: T1, BRD9 (Homo sapiens, UniProt Q9H8M2)
T1 sequence (Q9H8M2 1-597): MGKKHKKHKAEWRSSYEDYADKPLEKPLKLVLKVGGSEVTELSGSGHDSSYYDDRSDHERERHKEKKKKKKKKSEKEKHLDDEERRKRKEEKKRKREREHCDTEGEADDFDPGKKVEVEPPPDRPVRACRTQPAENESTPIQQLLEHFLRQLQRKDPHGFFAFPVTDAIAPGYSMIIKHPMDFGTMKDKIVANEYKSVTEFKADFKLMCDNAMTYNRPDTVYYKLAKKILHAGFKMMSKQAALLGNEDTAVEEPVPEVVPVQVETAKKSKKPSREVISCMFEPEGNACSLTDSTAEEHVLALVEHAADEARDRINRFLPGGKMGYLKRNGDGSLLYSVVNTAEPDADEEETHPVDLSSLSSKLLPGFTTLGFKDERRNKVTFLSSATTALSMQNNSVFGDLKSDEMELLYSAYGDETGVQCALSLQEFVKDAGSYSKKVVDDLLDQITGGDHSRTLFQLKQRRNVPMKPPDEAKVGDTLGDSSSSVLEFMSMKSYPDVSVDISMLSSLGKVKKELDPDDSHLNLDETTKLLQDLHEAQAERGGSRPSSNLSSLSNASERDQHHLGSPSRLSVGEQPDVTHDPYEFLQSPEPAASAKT
Experiment: HiBiT BRD9 degradation assay in 293T.166 (BRD9-HiBiT) cells
Format: cell-based
Parameters: endogenously expressing BRD9 with HiBiT fusion tag via CRISPR; host or cells: 293T.166 (BRD9-HiBiT), also expressing LgBiT ectopically
Settings: Table 1; 293T.166 cells, 2.0 hours; class symbols; read-out: HiBiT-Degradation 293T.166 BRD9 2.0 hours (DC50)
Description: Selected compounds were tested in a BRD9 degradation assay using the HiBit Method.
Dulbecco's modified Eagle medium (DMEM) without phenol red and fetal bovine serum (FBS) were purchased from Gibco (Grand Island, N.Y., USA). Nano-Glo® HiBiT Lytic Assay System was purchased from Promega (Madison, Wis., USA). 293T.166 (BRD9-HiBiT) cell line, endogenously expressing BRD9 with HiBiT fusion tag via CRISPR and ectopically expressing LgBiT tag, was purchased from Promega (Madison, Wis., USA). 293T.167 (BRD7-HiBiT) cell line, endogenously expressing BRD7 with HiBiT fusion tag via CRISPR and ectopically expressing LgBiT tag, was purchased from Promega (Madison, Wis., USA). 293T.92 (BRD4-HiBiT) cell line, endogenously expressing BRD4 with HiBiT fusion tag via CRISPR and ectopically expressing LgBiT tag, was generated in-house. Cell culture flasks and 384-well microplates were acquired from VWR (Radnor, Pa., USA).
BRD9 degradation was determined based on quantification of luminescent signal using Nano-Glo® HiBiT Lytic Assay kit. Test compounds were added to the 384-well plate from a top concentration of 10 μM with 11 points, half log titration in duplicates. 293T.166 cells were added into 384-well plates at a cell density of 10,000 cells per well. The plates were kept at 37° C. with 5% CO2 for 2 hours. BRD7 and BRD4 degradation was similarly determined with 293T.167 cells and 293T.92 cells, respectively. The cells treated in the absence of the test compound were the negative control and the cells without Nano-Glo® HiBiT Lytic reagent were the positive control. After 2-hour incubation, Nano-Glo® HiBiT Lytic Assay reagents were added to the cells. Luminescence was acquired on EnVision™ Multilabel Reader (PerkinElmer, Santa Clara, Calif., USA).

Row | SMILES | DC50 [nM]
1 | COc1cc(-c2cn(C)c(=O)c3[nH]ncc23)cc(OC)c1CNC1CN(CC(=O)N2CCC(c3ccc(NC4CCC(=O)NC4=O)cc3)CC2)C1 (centres unmarked) [Compound 38] | 100 to 500
2 | COc1cc(-c2cn(C)c(=O)c3[nH]ncc23)cc(OC)c1CN1CCC(OC(=O)N2CCC(c3ccc(NC4CCC(=O)NC4=O)cc3)CC2)CC1 (centres unmarked) [Compound 94, [1-[[2,6-dimethoxy-4-(6-methyl-7-oxo-1H-pyrazolo[3,4-c]pyridin-4-yl)phenyl]methyl]-4-piperidyl] 4-[4-[(2,6-dioxo-3-piperidyl)amino]phenyl]piperidine-1-carboxylate] | < 100
3 | COc1cc(-c2cn(C)c(=O)c3[nH]ncc23)cc(OC)c1CN1CCN(C(=O)CC2CCN(c3ccc(NC4CCC(=O)NC4=O)cc3C(F)(F)F)CC2)CC1 (centres unmarked) [Compound 52, 3-[4-[4-[2-[4-[[2,6-dimethoxy-4-(6-methyl-7-oxo-1H-pyrazolo[3,4-c]pyridin-4-yl)phenyl]methyl]piperazin-1-yl]-2-oxo-ethyl]-1-piperidyl]-3-(trifluoromethyl)anilino]piperidine-2,6-dione] | < 100
4 | COc1cc(-c2cn(C)c(=O)c3[nH]ncc23)cc(OC)c1CN1CCc2c(cccc2CN2CCC(c3ccc(NC4CCC(=O)NC4=O)cc3)C(F)(F)C2)C1 (centres unmarked) [Compound 95, 3-[4-[1-[[2-[[2,6-dimethoxy-4-(6-methyl-7-oxo-1H-pyrazolo[3,4-c]pyridin-4-yl)phenyl]methyl]-3,4-dihydro-1H-isoquinolin-5-yl]methyl]-3,3-difluoro-4-piperidyl]anilino]piperidine-2,6-dione] | < 100
5 | COc1cc(-c2cn(C)c(=O)c3[nH]ncc23)cc(OC)c1CN1CCN(C(=O)CC2CCN(c3ccc(NC4CCC(=O)NC4=O)cc3)CC2)CC1 (centres unmarked) [Compound 50] | < 100
6 | COc1cc(-c2cn(C)c(=O)c3cnccc23)cc(Cl)c1CN1CCC(C2CCN(c3ccc(NC4CCC(=O)NC4=O)cc3C(F)(F)F)CC2)CC1 (centres unmarked) [Compound 83, 3-[4-[4-[1-[[2-chloro-6-methoxy-4-(2-methyl-1-oxo-2,7-naphthyridin-4-yl)phenyl]methyl]-4-piperidyl]-1-piperidyl]-3-(trifluoromethyl)anilino]piperidine-2,6-dione] | < 100
7 | COc1cc(-c2cn(C)c(=O)c3cnccc23)cc(OC)c1CN1CCc2c(CN3CCC(c4ccc(NC5CCC(=O)NC5=O)cc4)CC3)cccc2C1 (centres unmarked) [Compound 96] | < 100
8 | COc1cc(-c2cn(C)c(=O)c3[nH]ncc23)cc(OC)c1CN1CCN(C(=O)CN2CCC(c3c(F)cc(NC4CCC(=O)NC4=O)cc3F)CC2)CC1 (centres unmarked) [Compound 17] | < 100
9 | CC(c1ccc(-c2cn(C)c(=O)c3cc(F)ccc23)cc1OC(F)(F)F)N1CCC(C2CCN(c3ccc(NC4CCC(=O)NC4=O)cc3F)CC2)CC1 (centres unmarked) [Compound 93] | < 100
10 | COc1cc(-c2cn(C)c(=O)c3[nH]ncc23)cc(OC)c1CN1CCN(C(=O)CN2CCC(c3ccc(NC4CCC(=O)NC4=O)cc3C(F)F)CC2)CC1 (centres unmarked) [Compound 11] | < 100
11 | COc1cc(-c2cn(C)c(=O)c3cc(Cl)ccc23)cc(OC)c1CN1CCN(C(=O)CN2CCC(c3ccc(NC4CCC(=O)NC4=O)cc3)CC2)CC1 (centres unmarked) [Compound 29] | < 100
12 | COc1cc(-c2cn(C)c(=O)c3[nH]ncc23)cc(F)c1CN1CCN(C(=O)CN2CCC(c3ccc(N(C)C4CCC(=O)NC4=O)cc3)CC2)CC1 (centres unmarked) [Compound 35] | < 100
13 | COc1cc(-c2cn(C)c(=O)c3cnccc23)cc(F)c1CN1CCC(C2CCN(c3ccc(NC4CCC(=O)NC4=O)cc3C(F)(F)F)CC2)CC1 (centres unmarked) [Compound 87] | < 100
14 | COc1cc(-c2cn(C)c(=O)c3cnccc23)cc(Cl)c1CN1CCC(CC(=O)N2CCC(c3ccc(NC4CCC(=O)NC4=O)cc3)CC2)CC1 (centres unmarked) [Compound 44] | < 100
15 | CN(C(=O)N1CCC(c2ccc(NC3CCC(=O)NC3=O)cc2)CC1)C1CCN(Cc2ccc(-c3cn(C)c(=O)c4cc(F)ccc34)cc2OC(F)(F)F)CC1 (centres unmarked) [Compound 114] | < 100

Other lines, results leading:

Row | DC50 [nM] | SMILES
16 | < 100 | CN(C(=O)N1CCC(c2ccc(NC3CCC(=O)NC3=O)cc2F)CC1)C1CCN(C(=O)c2ccc(-c3cn(C)c(=O)c4ccccc34)cc2OC(F)(F)F)CC1 (centres unmarked) [Compound 139]
17 | < 100 | COc1cc(-c2cn(C)c(=O)c3[nH]ncc23)cc(Cl)c1CN1CCC(C(=O)Nc2ccc(NC3CCC(=O)NC3=O)cc2F)CC1 (centres unmarked) [Compound 169, 1-[[2-chloro-6-methoxy-4-(6-methyl-7-oxo-1H-pyrazolo[3,4-c]pyridin-4-yl)phenyl]methyl]-N-[4-[(2,6-dioxo-3-piperidyl)amino]-2-fluoro-phenyl]piperidine-4-carboxamide]
18 | < 100 | COc1cc(-c2cn(C)c(=O)c3cnccc23)cc(Cl)c1C(=O)N1CCc2c(CN3CCC(c4ccc(NC5CCC(=O)NC5=O)cc4)C(F)(F)C3)cccc2C1 (centres unmarked) [Compound 236]
19 | < 100 | COc1cc(-c2cn(C)c(=O)c3cnccc23)cc(F)c1CN1CCC(N(C)C(=O)N2CCC(c3ccc(NC4CCC(=O)NC4=O)cc3)CC2)C(F)(F)C1 (centres unmarked) [Compound 124]
20 | < 100 | COc1cc(-c2cn(C)c(=O)c(C)c2C)cc(Cl)c1CN1CCC(C2CCN(c3ccc(NC4CCC(=O)NC4=O)cc3F)CC2)C(F)(F)C1 (centres unmarked) [Compound 197, 3-[4-[4-[1-[[2-chloro-6-methoxy-4-(1,4,5-trimethyl-6-oxo-3-pyridyl)phenyl]methyl]-3,3-difluoro-4-piperidyl]-1-piperidyl]-3-fluoro-anilino]piperidine-2,6-dione]
21 | < 100 | COc1cc(-c2cn(C)c(=O)c3ccccc23)cc(Cl)c1CN1CCC(N(C)C(=O)N2CCC(c3ccc(NC4CCC(=O)NC4=O)cc3)CC2)CC1 (centres unmarked) [Compound 121]
22 | < 100 | COc1cc(-c2cn(C)c(=O)c3[nH]ncc23)cc(Cl)c1CN1CCC(F)(CCC2CCN(c3ccc(NC4CCC(=O)NC4=O)cc3F)CC2)CC1 (centres unmarked) [Compound 151, 3-[4-[4-[2-[1-[[2-chloro-6-methoxy-4-(6-methyl-7-oxo-1H-pyrazolo[3,4-c]pyridin-4-yl)phenyl]methyl]-4-fluoro-4-piperidyl]ethyl]-1-piperidyl]-3-fluoro-anilino]piperidine-2,6-dione]
23 | < 100 | COc1cc(-c2cn(C)c(=O)c3cnccc23)cc(Cl)c1C(=O)N1CCC(CCC2CCN(c3ccc(NC4CCC(=O)NC4=O)cc3F)CC2)CC1 (centres unmarked) [Compound 241, 3-[4-[4-[2-[1-[2-chloro-6-methoxy-4-(2-methyl-1-oxo-2,7-naphthyridin-4-yl)benzoyl]-4-piperidyl]ethyl]-1-piperidyl]-3-fluoro-anilino]piperidine-2,6-dione]
24 | < 100 | COc1cc(-c2cn(C)c(=O)c3[nH]ncc23)cc(Cl)c1CN1CCc2c(cccc2NC2CCN(c3ccc(NC4CCC(=O)NC4=O)cc3)CC2)C1 (centres unmarked) [Compound 171, 3-[4-[4-[[2-[[2-chloro-6-methoxy-4-(6-methyl-7-oxo-1H-pyrazolo[3,4-c]pyridin-4-yl)phenyl]methyl]-3,4-dihydro-1H-isoquinolin-5-yl]amino]-1-piperidyl]anilino]piperidine-2,6-dione]
25 | < 100 | COc1cc(-c2cn(C)c(=O)c(C)c2C)cc(Cl)c1C(=O)N1CCC(N(C)C(=O)N2CCC(c3ccc(NC4CCC(=O)NC4=O)cc3)CC2)CC1 (centres unmarked) [Compound 133]
26 | < 100 | COc1cc(-c2cn(C)c(=O)c(C)c2C)cc(OC)c1CN1CCC(N2CCN(c3ccc(NC4CCC(=O)NC4=O)cc3Cl)CC2)C(F)(F)C1 (centres unmarked) [Compound 187]
27 | < 100 | CN(C(=O)N1CCC(c2ccc(NC3CCC(=O)NC3=O)cc2)CC1)C1CCN(Cc2ccc(-c3cn(C)c(=O)c4cc(F)ccc34)cc2OC(F)(F)F)CC1(F)F (centres unmarked) [Compound 123]
28 | < 100 | CN(C(=O)N1CCC(c2ccc(NC3CCC(=O)NC3=O)cc2)CC1)C1CCN(C(=O)c2ccc(-c3cn(C)c(=O)c4ccccc34)cc2OC(F)(F)F)CC1 (centres unmarked) [Compound 127]
29 | < 100 | Cc1c(-c2ccc(C(=O)N3CCC(N(C)C(=O)N4CCC(c5ccc(NC6CCC(=O)NC6=O)cc5)CC4)CC3)c(OC(F)(F)F)c2)cn(C)c(=O)c1C (centres unmarked) [Compound 129]
